Laboratory results taken from patent US20060025394A1, “Estradiol-related compounds and methods of use as anti-tumor agents” (priority 2003, published 2006).

How the values were obtained:
[1] = test system: MCF-7; assay: Cytotoxicity testing (Example 7), MTS, MCF-7; type: cell-based
Protocol: (§1) Cytotoxicity Studies were done in DU-145 and MCF-7 Cells. […] We set out to test the efficacy of these compounds based on known affinities for ER-α previously reported. Cells were treated for five days with 1 mM of each compound in a defined media. Cell number was estimated by the MTS method. Similar studies were carried out in the MCF-7 cell line known to express both ER-α and -β, and display proliferative properties in the presence of classic estrogens.

[2] = test system: DU-145; assay: Cytotoxicity testing (Example 7), MTS, DU-145; type: cell-based; settings: for DU145 % Cell#: five days, MTS
Protocol: as §1

[3] = test system: NCR nude mice; settings: 5 to 40 mg/kg/day bolus IM injection, 40-day period
Protocol: Doses included 5 to 40 mg/kg/day bolus IM injection. Toxicity effects were gauged based on changes in animal weight and gross analysis of specific organs including liver, lung, prostate, brain, spleen, heart, and kidney, collected, and fixed in paraffin sections.

[4] = test system: DU145; assay: MTS cell viability assay in DU145; type: cell-based; settings: DU145, concentrations above 1 μM
Protocol: (§2) DU145, LNCaP, PC3, and MCF-7 cells were obtained from the American Type Culture Collection (Manassas, Va.). DU145, PC3, and MCF-7 cells were maintained in Dulbecco's modified Eagle's medium/F-12 supplemented with 5% heat inactivated Fetal Calf Serum and Penicillin/Streptomycin (Invitrogen Life Technologies, Carlsbad, Calif.). LNCaP cells were maintained in RPMI 1640 medium supplemented in the same fashion. Cells were cultured in 75 cm^2 flasks (Falcon, BD Biosciences, Bedford, Mass.) at 37° C. and 5% CO2. For the MTS assay (Example 3), five thousand cells were plated in each well of a 24 well plate (Falcon), were allowed to attach for a 48-hour period in the media described, and changed to a defined medium, (DMEM/F-12 or RPMI1640) supplemented with insulin (BD Biosciences). A 1000× solution of the compound of interest solubilized in DMSO (Sigma, Saint Louis, Mo.) was diluted in the defined media just prior to starting each experiment, and media was refreshed every 48 to 72 hours throughout the experiments.
(§3) . Upon completing five days of treatment, the medium in each well was exchanged for 400 μL of an MTS solution (3-(4,5-dimethylthiazol-2-yl)-5-(3-carboxymethoxyphenyl)-2-(4-sulfophenyl)-2H-tetrazolium, inner salt; O'Toole SA, 2003, Cancer Detect Prev., 2003;27(1):47-54) spiked into media as per the manufacture's instructions (Promega, Madison, Wis.) and incubated for 2 hours at 37° C. before reading the absorbance on the μQuant UV/VIS plate reader, in conjunction with KCjunior Software (Bio-Tek Instruments, Winooski, Vt.) set at 490 nm. All experiments were carried out in quadruplicate, control wells were treated with the carrier DMSO. E2, which is estradiol-17β (Steraloids®, Newport, R.I.) and resveratrol (Sigma) were used as controls. […]

[5] = test system: DU145, PC3, and LNCaP cell lines; assay: MTS assay, values averaged or stated over the CaP cell lines; type: cell-based; settings: average
Protocol: as §2, §3

[6] = Table 3, five days, 1 mM of each compound, defined media
[7] = Table 3, 1 mM of each compound, defined media
[8] = Table 4 comparative study, five days, 1 mM
[9] = Table 4 comparative study, 1 mM

SMILES | MCF-7 % Cell# [1, 6] | DU145 % Cell# [2, 7] | MCF-7 % Cell# [1, 8] | DU145 % Cell# [2, 9] | also measured
CC12CCC3c4ccc(O)cc4CCC3C1CCC2(O)C=Cc1ccccc1 (stereo not shown) [Compound 1] | 22% | 62% | – | – | –
CC12CCC3c4ccc(O)cc4CCC3C1CCC2(O)C=Cc1ccccc1F (stereo not shown) [Compound 2] | 40% | 80% | – | – | –
Cc1ccc(C=CC2(O)CCC3C4CCc5cc(O)ccc5C4CCC32C)cc1 (stereo not shown) [Compound 3] | 23% | 33% | – | – | –
COC(=O)c1ccc(C=CC2(O)CCC3C4CCc5cc(O)ccc5C4CCC32C)cc1 (stereo not shown) [Compound 4] | 28% | 100% | – | – | –
Cc1cccc(C=CC2(O)CCC3C4CCc5cc(O)ccc5C4CCC32C)c1 (stereo not shown) [Compound 5] | 24% | 9% | – | – | overall result in cytotoxicity testing (Table 3) [2]: good results
CC12CCC3c4ccc(O)cc4CCC3C1CCC2(O)C=Cc1ccc(F)cc1 (stereo not shown) [Compound 6] | 28% | 67% | – | – | –
CC12CCC3c4ccc(O)cc4CCC3C1CCC2(O)C=Cc1ccc(C(=O)O)cc1 (stereo not shown) [Compound 8] | 120% | 99% | – | – | –
CC12CCC3c4ccc(O)cc4CCC3C1CCC2(O)C=Cc1ccc(F)cc1 (stereo not shown) [Compound 9] | 27% | 17% | – | – | overall result in cytotoxicity testing (Table 3) [2]: good results
CC12CCC3c4ccc(O)cc4CCC3C1CCC2(O)C=Cc1ccc(C#N)cc1 (stereo not shown) [Compound 10] | 23% | 92% | – | – | –
COc1ccc(C=CC2(O)CCC3C4CCc5cc(O)ccc5C4CCC32C)cc1 (stereo not shown) [Compound 11] | 28% | 60% | – | – | –
COC(=O)c1ccccc1C=CC1(O)CCC2C3CCc4cc(O)ccc4C3CCC21C (stereo not shown) [Compound 12] | 30% | 92% | – | – | –
C=CC1(O)CCC2C3CCc4cc(O)ccc4C3CCC21C (stereo not drawn) [Compound 13, 17α-vinyl-E2, reference compound] | 53% | 98% | – | – | –
COC(=O)c1ccc(C=CC2(O)CCC3C4CCc5cc(O)ccc5C4CCC32C)cc1 (stereo not shown) [Compound 15] | 32% | 92% | – | – | –
CC12CCC3c4ccc(O)cc4CCC3C1CCC2(O)C=Cc1ccccc1CO (stereo not shown) [Compound 16] | 55% | 105% | – | – | –
CC12CCC3c4ccc(O)cc4CCC3C1CCC2(O)C=Cc1ccccc1C(F)(F)F (stereo not shown) [Compound 19] | 20% | 5% | – | – | overall result in cytotoxicity testing (Table 3) [2]: good results
CC12CCC3c4ccc(O)cc4CCC3C1CCC2(O)C=Cc1ccccc1CO (stereo not shown) [Compound 20] | 24% | 97% | – | – | –
CC12CCC3c4ccc(O)cc4CCC3C1CCC2(O)C=CBr (stereo not drawn) [Compound 22, 17α-Br-vinyl-E2, reference compound] | 59% | 91% | – | – | –
CC12CCC3c4ccc(O)cc4CCC3C1CCC2(O)C=Cc1cccc(C(F)(F)F)c1 (stereo not shown) [Compound 23] | 19% | 5% | – | – | overall result in cytotoxicity testing (Table 3) [2]: good results

SMILES | MCF-7 % Cell# [1, 6] | DU145 % Cell# [2, 7] | MCF-7 % Cell# [1, 8] | DU145 % Cell# [2, 9] | also measured
CC12CCC3c4ccc(O)cc4CCC3C1CCC2(O)C=Cc1ccccc1C(=O)O (stereo not shown) [Compound 24] | 61% | 103% | – | – | –
CC12CCC3c4ccc(O)cc4CCC3C1CCC2(O)C=Cc1ccc(C(F)(F)F)cc1 (stereo not shown) [Compound 25] | 13% | 5% | – | – | general toxicity (animal weight, gross analysis of organs) [3]: No apparent detrimental effects; overall result in cytotoxicity testing (Table 3) [2]: good results
C[C@]12C[C@H](c3ccc(OCCCCCS(=O)(=O)CCCC(F)(F)C(F)(F)F)cc3)[C@@H]3c4ccc(O)cc4CC[C@H]3[C@@H]1CC[C@@H]2O [Compound 26, RU 58668, reference compound] | – | – | 37% | 73% | –
CC/C(=C(\c1ccccc1)c1ccc(OCCN(C)C)cc1)c1ccccc1 [Compound 27, ICI 47, 699, reference compound] | – | – | 21% | 12% | –
C[C@]1(O)CC[C@H]2[C@@H]3CCC4=CC(=O)CCC4=C3C=C[C@@]21C [Compound 29, RU 1881, reference compound] | – | – | 94% | 99% | –
CC/C(=C(\c1ccccc1)c1ccc(OCCN(C)C)cc1)c1ccccc1.O=C(O)CC(O)(CC(=O)O)C(=O)O [Compound 30, TAM Citr, reference compound] | – | – | 33% | 47% | –
CN(C)CCOc1ccc([C@H]2C[C@]3(C)[C@@H](O)CC[C@H]3[C@@H]3CCc4cc(O)ccc4[C@H]32)cc1 [Compound 31, RU 39411, reference compound] | – | – | 102% | 102% | –
C[C@]12CC[C@@H]3c4ccc(O)cc4C[C@@H](CCCCCCCCC[S+]([O-])CCCC(F)(F)C(F)(F)F)[C@H]3[C@@H]1CC[C@@H]2O (stereo partly shown) [Compound 32, ICI-182780, reference compound] | – | – | 62% | 94% | –
CC/C(=C(\c1ccccc1)c1ccc(OCCN(C)C)cc1)c1ccccc1 [Compound 33, Z-TAM, reference compound] | – | – | 25% | 56% | –
COc1ccc2c(c1)CCC(c1ccccc1)=C2c1ccc(OCCN2CCCC2)cc1.Cl [Compound 34, 4-11, 100A, reference compound] | – | – | 32% | 29% | –
C#C[C@]1(O)CC[C@H]2[C@@H]3CCC4=Cc5oncc5C[C@]4(C)[C@H]3CC[C@@]21C [Compound 35, Danazol, reference compound] | – | – | 107% | 92% | –
C#C[C@]1(O)CC[C@H]2[C@@H]3CCc4cc(O)ccc4[C@H]3[C@H](OC)C[C@@]21C [Compound 37, RU16117, reference compound] | – | – | 103% | 101% | –
CC12CCC3c4ccc(O)cc4CCC3C1CCC2(O)C=Cc1ccc([N+](=O)[O-])cc1 (stereo not shown) [Compound 46] | 35% | 44% | – | – | –
CC12CCC3c4ccc(O)cc4CCC3C1CCC2(O)C=Cc1ccccc1 (stereo not shown) [Compound 48] | 27% | 47% | – | – | –
CC12CCC3c4ccc(O)cc4CCC3C1CCC2(O)C=Cc1ccccc1[N+](=O)[O-] (stereo not shown) [Compound 49] | 29% | 17% | – | – | –
C[C@]12CC[C@@H]3c4ccc(O)cc4CC[C@H]3[C@@H]1CC[C@@H]2O [Compound E2, estradiol-17β, reference compound] | 90% | 100% | 90% | 100% | cytotoxic or proliferative effects [4]: no apparent cytotoxic or proliferative effects; difference in cell number over non-treated cells ([5]; negative control): 0±3.4%
Oc1ccc(C=Cc2cc(O)cc(O)c2)cc1 [resveratrol] | – | – | – | – | decrease in cell number ([5]; positive control): 65±5.3%
